Measurements as given in PubChem BioAssay AID344 (DTP/NCI, 2004).
Toxic doses and inconclusive results are not listed.

Tested on: mice, LPC-1 plasma cell tumor ip, median survival T/C
Test: NCI In Vivo Anticancer Drug Screen. Data for tumor model Lieberman Plasma Cell No. 1 (LPC-1) (intraperitoneal) in unknown mice
Conditions: endpoint: median survival time, higher = longer survival
Experimental: The antitumor activity of compounds was measured in mice bearing transplantable tumors. Survival or tumor size were measured and the results are expressed as the measurement made in the treated group (T) divided by the measurement made in the vehicle treated control group (C). The tumor model used in this assay is Lieberman Plasma Cell No. 1 (LPC-1) (intraperitoneal) in unknown mice

[1] = dose: 1.0 mg/kg/injection, schedule: Q01DX028 (sc), vehicle: saline
[2] = dose: 2.0 mg/kg/injection, schedule: Q01DX028 (sc), vehicle: saline

CO[C@@]12[C@H](COC(N)=O)C3=C(C(=O)C(C)=C(N)C3=O)N1C[C@@H]1N[C@@H]12
T/C (dose: 0.25 mg/kg/injection, schedule: Q01DX028 (sc), vehicle: saline): 191 % of control | T/C (dose: 0.5 mg/kg/injection, schedule: Q01DX028 (sc), vehicle: saline): 161 % of control | T/C [1]: 111 % of control | T/C [2]: 100 % of control

CC[C@H]1CN2CCc3cc(OC)c(OC)cc3[C@@H]2C[C@@H]1C[C@H]1NCCc2cc(OC)c(OC)cc21
T/C [1]: 106 % of control | T/C [2]: 106 % of control | T/C (dose: 4.0 mg/kg/injection, schedule: Q01DX028 (sc), vehicle: saline): 94 % of control

CN(C)c1nc(N(C)C)nc(N(C)C)n1
T/C (dose: 50.0 mg/kg/injection, schedule: Q01DX009 (ip), vehicle: olive oil, sesame oil, peanut oil): 92 % of control | T/C (dose: 100.0 mg/kg/injection, schedule: Q01DX009 (ip), vehicle: other): 122 % of control | T/C (dose: 200.0 mg/kg/injection, schedule: Q01DX009 (ip), vehicle: other): 110 % of control | T/C (dose: 400.0 mg/kg/injection, schedule: Q01DX009 (ip), vehicle: other): 106 % of control
